Measurements taken from ChEMBL document CHEMBL1137656, “Effects of serum on in vitro susceptibility testing of echinocandins” (Antimicrob Agents Chemother, 2007).
Numbered stars: 1 amine (or outer) side, 2 acyl side, 3 side chain; on linkers, the order of the positions; unused ones are H or OH. Bridge positions count the residues as written; N and C are the ends. Square brackets hold non-standard residues; d marks the D form. Peptide text beside a SMILES is read from it. * marks the point of attachment. hTyr(3S-OH,4S-OH,3'-OSO3H) = N[C@H](C(=O)O)[C@H](O)[C@@H](O)c1ccc(O)c(OS(=O)(=O)O)c1; pTerphenylCO(4''-OnC5H11) = CCCCCOc1ccc(-c2ccc(-c3ccc(C(=O)*)cc3)cc2)cc1; Orn(4R-OH,5R-OH) = O=C([C@H](C[C@@H](O)[C@@H](O)N[*:3])N[*:1])[*:2]; hTyr(3S-OH,4S-OH) = N[C@H](C(=O)O)[C@H](O)[C@@H](O)c1ccc(O)cc1; Pro(3S-OH,4S-Me) = C[C@H]1CN[C@H](C(=O)O)[C@H]1O; X1 = CCCCCOc1ccc(-c2cc(-c3ccc(C(=O)*)cc3)no2)cc1; Gln(3R-OH) = NC(=O)C[C@@H](O)[C@H](N)C(=O)O; Hyp = O=C(O)[C@@H]1C[C@@H](O)CN1

What was measured:
Assay type in all cases: functional
Candida parapsilosis [1] = assay: Antifungal activity against Candida parapsilosis isolate 0011-013 after 24 hrs by CLSI M27-A2 broth microdilution method in presence of RPMI 1640 medium; settings: Lodderomyces parapsilosis, isolate 0011-013, 24 h
Aspergillus flavus [2] = assay: Ratio of MIC50 for Aspergillus flavus isolate 0001-033 in presence of 50% human serum to MIC50 for Aspergillus flavus isolate 0001-033 in presence of RPMI 1640 medium
Aspergillus fumigatus [3] = assay: Ratio of MIC50 for Aspergillus fumigatus isolate 0002-0016 in presence of 50% human serum to MIC50 for Aspergillus fumigatus isolate 0002-0016 in presence of RPMI 1640 medium
Candida parapsilosis [4] = assay: Ratio of MIC50 for Candida parapsilosis isolate 0014-074 in presence of 50% human serum to MIC50 for Candida parapsilosis isolate 0014-074 in presence of RPMI 1640 medium
Aspergillus fumigatus [5] = assay: Ratio of MIC50 for Aspergillus fumigatus isolate 0002-020 in presence of 50% human serum to MIC50 for Aspergillus fumigatus isolate 0002-020 in presence of RPMI 1640 medium
Aspergillus terreus [6] = assay: Antifungal activity against Aspergillus terreus isolate 0031-087 after 48 hrs by CLSI M38-A broth microdilution method in presence of 50% human serum; settings: isolate 0031-087, 48 h
Candida parapsilosis [7] = assay: Antifungal activity against Candida parapsilosis isolate 0026-003 after 24 hrs by CLSI M27-A2 broth microdilution method in presence of 50% human serum; settings: Lodderomyces parapsilosis, isolate 0026-003, 24 h
Pichia kudriavzevii [8] = assay: Antifungal activity against Candida krusei ATCC 6258 after 24 hrs by CLSI M27-A2 broth microdilution method in presence of RPMI 1640 medium; settings: ATCC 6258, 24 h
Candida parapsilosis [9] = assay: Antifungal activity against Candida parapsilosis isolate 0014-074 after 24 hrs by CLSI M27-A2 broth microdilution method in presence of 50% human serum; settings: Lodderomyces parapsilosis, isolate 0014-074, 24 h
Clavispora lusitaniae [10] = assay: Ratio of MIC50 for Candida lusitaniae isolate 0015-049 in presence of 50% human serum to MIC50 for Candida lusitaniae isolate 0015-049 in presence of RPMI 1640 medium
Candida tropicalis [11] = assay: Antifungal activity against Candida tropicalis isolate 0022-021 after 24 hrs by CLSI M27-A2 broth microdilution method in presence of RPMI 1640 medium; settings: isolate 0022-021, 24 h
Candida albicans [12] = assay: Antifungal activity against Candida albicans isolate 0012-025 after 24 hrs by CLSI M27-A2 broth microdilution method in presence of RPMI 1640 medium; settings: isolate 0012-025, 24 h
Candida parapsilosis [13] = assay: Ratio of MIC50 for Candida parapsilosis isolate 0011-013 in presence of 50% human serum to MIC50 for Candida parapsilosis isolate 0011-013 in presence of RPMI 1640 medium
Aspergillus flavus [14] = assay: Antifungal activity against Aspergillus flavus isolate 0001-033 after 24 hrs by CLSI M38-A broth microdilution method in presence of RPMI 1640 medium; settings: isolate 0001-033, 24 h
Aspergillus flavus [15] = assay: Antifungal activity against Aspergillus flavus isolate 0001-061 after 24 hrs by CLSI M38-A broth microdilution method in presence of 50% human serum; settings: isolate 0001-061, 24 h
Pichia kudriavzevii [16] = assay: Antifungal activity against Candida krusei isolate 0001-058 after 24 hrs by CLSI M27-A2 broth microdilution method in presence of 50% human serum; settings: isolate 0001-058, 24 h
Aspergillus terreus [17] = assay: Antifungal activity against Aspergillus terreus isolate 0031-087 after 48 hrs by CLSI M38-A broth microdilution method in presence of RPMI 1640 medium; settings: isolate 0031-087, 48 h
Aspergillus fumigatus [18] = assay: Antifungal activity against Aspergillus fumigatus isolate 0002-020 after 24 hrs by CLSI M38-A broth microdilution method in presence of 50% human serum; settings: isolate 0002-020, 24 h
Candida parapsilosis [19] = assay: Antifungal activity against Candida parapsilosis isolate 0011-013 after 24 hrs by CLSI M27-A2 broth microdilution method in presence of 50% human serum; settings: Lodderomyces parapsilosis, isolate 0011-013, 24 h
Candida albicans [20] = assay: Antifungal activity against Candida albicans isolate 0012-025 after 24 hrs by CLSI M27-A2 broth microdilution method in presence of 50% human serum; settings: isolate 0012-025, 24 h
Nakaseomyces glabratus [21] = assay: Antifungal activity against Candida glabrata isolate 0049-038 after 24 hrs by CLSI M27-A2 broth microdilution method in presence of 50% human serum; settings: isolate 0049-038, 24 h
Pichia kudriavzevii [22] = assay: Ratio of MIC50 for Candida krusei isolate 0001-058 in presence of 50% human serum to MIC50 for Candida krusei isolate 0001-058 in presence of RPMI 1640 medium
Candida albicans [23] = assay: Antifungal activity against Candida albicans isolate 0021-076 after 24 hrs by CLSI M27-A2 broth microdilution method in presence of 50% human serum; settings: isolate 0021-076, 24 h
Clavispora lusitaniae [24] = assay: Ratio of MIC50 for Candida lusitaniae isolate 0013-002 in presence of 50% human serum to MIC50 for Candida lusitaniae isolate 0013-002 in presence of RPMI 1640 medium
Nakaseomyces glabratus [25] = assay: Antifungal activity against Candida glabrata isolate 0022-012 after 24 hrs by CLSI M27-A2 broth microdilution method in presence of 50% human serum; settings: isolate 0022-012, 24 h
Pichia kudriavzevii [26] = assay: Antifungal activity against Candida krusei isolate 0001-058 after 24 hrs by CLSI M27-A2 broth microdilution method in presence of RPMI 1640 medium; settings: isolate 0001-058, 24 h
Aspergillus niger [27] = assay: Ratio of MIC50 for Aspergillus niger isolate 0001-073 in presence of 50% human serum to MIC50 for Aspergillus niger isolate 0001-073 in presence of RPMI 1640 medium
Candida albicans [28] = assay: Antifungal activity against Candida albicans isolate 0021-076 after 24 hrs by CLSI M27-A2 broth microdilution method in presence of RPMI 1640 medium; settings: isolate 0021-076, 24 h
Aspergillus niger [29] = assay: Antifungal activity against Aspergillus niger isolate 0001-073 after 24 hrs by CLSI M38-A broth microdilution method in presence of 50% human serum; settings: isolate 0001-073, 24 h
Candida parapsilosis [30] = assay: Antifungal activity against Candida parapsilosis isolate 0036-030 after 24 hrs by CLSI M27-A2 broth microdilution method in presence of RPMI 1640 medium; settings: Lodderomyces parapsilosis, isolate 0036-030, 24 h
Aspergillus flavus [31] = assay: Antifungal activity against Aspergillus flavus isolate 0001-061 after 24 hrs by CLSI M38-A broth microdilution method in presence of RPMI 1640 medium; settings: isolate 0001-061, 24 h
Candida tropicalis [32] = assay: Ratio of MIC50 for Candida tropicalis isolate 0022-021 in presence of 50% human serum to MIC50 for Candida tropicalis isolate 0022-021 in presence of RPMI 1640 medium
Aspergillus fumigatus [33] = assay: Antifungal activity against Aspergillus fumigatus isolate 0002-020 after 24 hrs by CLSI M38-A broth microdilution method in presence of RPMI 1640 medium; settings: isolate 0002-020, 24 h

| SMILES | MIC50 (Candida parapsilosis [1]) [µg/mL] | Ratio (Aspergillus flavus [2]) | Ratio (Aspergillus fumigatus [3]) | Ratio (Candida parapsilosis [4]) | Ratio (Aspergillus fumigatus [5]) | MIC50 (Aspergillus terreus [6]) [µg/mL] | MIC50 (Candida parapsilosis [7]) [µg/mL] | MIC50 (Pichia kudriavzevii [8]) [µg/mL] | MIC50 (Candida parapsilosis [9]) [µg/mL] | Ratio (Clavispora lusitaniae [10]) | MIC50 (Candida tropicalis [11]) [µg/mL] | MIC50 (Candida albicans [12]) [µg/mL] | Ratio (Candida parapsilosis [13]) | MIC50 (Aspergillus flavus [14]) [µg/mL] | MIC50 (Aspergillus flavus [15]) [µg/mL] | MIC50 (Pichia kudriavzevii [16]) [µg/mL] | MIC50 (Aspergillus terreus [17]) [µg/mL] | MIC50 (Aspergillus fumigatus [18]) [µg/mL] | MIC50 (Candida parapsilosis [19]) [µg/mL] | MIC50 (Candida albicans [20]) [µg/mL] | also measured |
| --- | --- | --- | --- | --- | --- | --- | --- | --- | --- | --- | --- | --- | --- | --- | --- | --- | --- | --- | --- | --- | --- |
| CCCCCOc1ccc(-c2ccc(-c3ccc(C(=O)N[C@H]4C[C@@H](O)[C@@H](O)NC(=O)[C@@H]5[C@@H](O)[C@@H](C)CN5C(=O)[C@H]([C@@H](C)O)NC(=O)[C@H]([C@H](O)[C@@H](O)c5ccc(O)cc5)NC(=O)[C@@H]5C[C@@H](O)CN5C(=O)[C@H]([C@@H](C)O)NC4=O)cc3)cc2)cc1 [ANIDULAFUNGIN] ({pTerphenylCO(4''-OnC5H11)}-[Orn(4R-OH,5R-OH)]T[Hyp][hTyr(3S-OH,4S-OH)]T[Pro(3S-OH,4S-Me)]; lactam 1-C) | 0.0313 | 32 | 64 | 64 | 64 | 0.25 | 128 | 0.125 | 0.25 | 8 | 0.0156 | 0.0156 | 64 | 4 | 128 | 1 | 0.0156 | 0.5 | 2 | 0.25 | MIC50 (Nakaseomyces glabratus [21]): 2 µg/mL; Ratio (Pichia kudriavzevii [22]): 32; MIC50 (Candida albicans [23]): 128 µg/mL; Ratio (Clavispora lusitaniae [24]): 512; MIC50 (Nakaseomyces glabratus [25]): 1 µg/mL; MIC50 (Pichia kudriavzevii [26]): 0.0313 µg/mL; Ratio (Aspergillus niger [27]): 512; MIC50 (Candida albicans [28]): 0.5 µg/mL; MIC50 (Aspergillus niger [29]): 0.5 µg/mL; MIC50 (Candida parapsilosis [30]): 1 µg/mL; MIC50 (Aspergillus flavus [31]): 4 µg/mL; Ratio (Candida tropicalis [32]): 128; MIC50 (Aspergillus fumigatus [33]): 0.008 µg/mL |
| CC[C@H](C)C[C@H](C)CCCCCCCCC(=O)N[C@H]1C[C@@H](O)[C@@H](NCCN)NC(=O)[C@@H]2[C@@H](O)CCN2C(=O)[C@H]([C@H](O)CCN)NC(=O)[C@H]([C@H](O)[C@@H](O)c2ccc(O)cc2)NC(=O)[C@@H]2C[C@@H](O)CN2C(=O)[C@H]([C@@H](C)O)NC1=O [CASPOFUNGIN] | 0.25 | 4 | 16 | 2 | 256 | 0.5 | 8 | 0.5 | 0.5 | 2 | 0.5 | 0.25 | 4 | 32 | 128 | 0.5 | 0.5 | 128 | 1 | 0.25 | MIC50 (Nakaseomyces glabratus [21]): 0.5 µg/mL; Ratio (Pichia kudriavzevii [22]): 1; MIC50 (Candida albicans [23]): 4 µg/mL; Ratio (Clavispora lusitaniae [24]): 1; MIC50 (Nakaseomyces glabratus [25]): 0.5 µg/mL; MIC50 (Pichia kudriavzevii [26]): 0.5 µg/mL; Ratio (Aspergillus niger [27]): 512; MIC50 (Candida albicans [28]): 0.5 µg/mL; MIC50 (Aspergillus niger [29]): 0.25 µg/mL; MIC50 (Candida parapsilosis [30]): 1 µg/mL; MIC50 (Aspergillus flavus [31]): 128 µg/mL; Ratio (Candida tropicalis [32]): 1; MIC50 (Aspergillus fumigatus [33]): 0.5 µg/mL |
| CCCCCOc1ccc(-c2cc(-c3ccc(C(=O)N[C@H]4C[C@@H](O)[C@@H](O)NC(=O)[C@@H]5[C@@H](O)[C@@H](C)CN5C(=O)[C@H]([C@H](O)CC(N)=O)NC(=O)[C@H]([C@H](O)[C@@H](O)c5ccc(O)c(OS(=O)(=O)O)c5)NC(=O)[C@@H]5C[C@@H](O)CN5C(=O)[C@H]([C@@H](C)O)NC4=O)cc3)no2)cc1 [MICAFUNGIN] (X1-[Orn(4R-OH,5R-OH)]T[Hyp][hTyr(3S-OH,4S-OH,3'-OSO3H)][Gln(3R-OH)][Pro(3S-OH,4S-Me)]; lactam 1-C) | 0.0156 | 1024 | 64 | 32 | 128 | 0.25 | 64 | 0.0625 | 0.5 | 256 | 0.0156 | 0.0156 | 256 | 0.125 | 128 | 2 | 0.002 | 0.5 | 4 | 1 | MIC50 (Nakaseomyces glabratus [21]): 1 µg/mL; Ratio (Pichia kudriavzevii [22]): 32; MIC50 (Candida albicans [23]): 64 µg/mL; Ratio (Clavispora lusitaniae [24]): 128; MIC50 (Nakaseomyces glabratus [25]): 1 µg/mL; MIC50 (Pichia kudriavzevii [26]): 0.0625 µg/mL; Ratio (Aspergillus niger [27]): 128; MIC50 (Candida albicans [28]): 0.5 µg/mL; MIC50 (Aspergillus niger [29]): 0.25 µg/mL; MIC50 (Candida parapsilosis [30]): 0.5 µg/mL; MIC50 (Aspergillus flavus [31]): 0.125 µg/mL; Ratio (Candida tropicalis [32]): 128; MIC50 (Aspergillus fumigatus [33]): 0.004 µg/mL |
